This test deals with T1, farnesyl protein transferase (FPT), partially purified from rat brain (Rattus norvegicus, UniProt Q02293+Q04631).
T1 construct: were partially purified from rat brain by ammonium sulfate fractionation followed by Q-Sepharose
In words: Inhibition of farnesyl protein transferase (transfer of [3H]farnesyl to Ras-CVLS). The class given is biochemical. The method, then: 1. In vitro enzyme assays: Inhibition of farnesyl protein transferase and geranylgeranyl protein transferase.
Human farnesyl protein transferase was also expressed in E. coli, using cDNA clones encoding both the α and β subunits. […] Human farnesyl protein transferase was partially-purified from the soluble protein fraction of E. coli as described above. […] Two forms of val^12-Ha-Ras protein were prepared as substrates for these enzymes, differing in their carboxy terminal sequence. One form terminated in cysteine-valine-leucine-serine (Ras-CVLS) the other in cystein-valine-leucine-leucine (Ras-CVLL). Ras-CVLS is a substrate for the farnesyl protein transferase while Ras-CVLL is a substrate for geranylgeranyl protein transferase I. The cDNAs encoding these proteins were constructed so that the proteins contain an amino-terminal extension of 6 histidine residues. Both proteins were expressed in Escherichia coli and purified using metal chelate affinity chromatography. The radiolabelled isoprenyl pyrophosphate substrates, [^3H]farnesyl pyrophosphate and [3H]geranylgeranyl pyrophosphate, were purchased from DuPont/New England Nuclear.
The reaction was allowed to proceed for 30 minutes at room temperature and then stopped with 0.5 ml of 4% sodium dodecyl sulfate (SDS) followed by 0.5 ml of cold 30% trichloracetic acid (TCA). Samples were allowed to sit on ice for 45 minutes and precipitated Ras protein was then collected on GF/C filter paper mats using a Brandel cell harvester. […] Percent inhibition was calculated relative to the DMSO vehicle control.

Setting [1] is: Ras-CVLS farnesylation, partially purified rat brain FPT, read-out: FPT IC50.
[2] abbreviates: enzyme inhibition, read-out: FPT IC50.

Results on 46 compounds are retold here after patent US20030055065A1, “Tricyclic amide and urea compounds useful for inhibition of G-protein function and for treatment of proliferative diseases” (priority 1993, published 2003).

SMILES strings stand for the structures. Where two headings read alike, the source gives them in different places.

T1 sequence (Q02293 whole entry, one chain of several): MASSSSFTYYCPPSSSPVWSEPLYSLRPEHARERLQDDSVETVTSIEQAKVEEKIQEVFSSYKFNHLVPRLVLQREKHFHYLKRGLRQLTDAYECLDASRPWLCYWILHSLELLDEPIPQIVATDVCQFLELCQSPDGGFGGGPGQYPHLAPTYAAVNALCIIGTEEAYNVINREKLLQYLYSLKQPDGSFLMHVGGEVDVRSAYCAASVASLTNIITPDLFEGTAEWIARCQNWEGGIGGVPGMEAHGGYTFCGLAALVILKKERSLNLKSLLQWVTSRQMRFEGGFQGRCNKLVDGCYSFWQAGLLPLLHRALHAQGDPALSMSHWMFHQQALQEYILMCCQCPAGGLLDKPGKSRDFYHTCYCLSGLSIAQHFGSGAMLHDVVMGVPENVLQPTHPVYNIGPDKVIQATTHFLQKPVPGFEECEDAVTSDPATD

With `CC(C)(C(=O)N1CCC(=C2c3ccc(Cl)cc3CCc3cc(Br)cnc32)CC1)c1ccncc1` [Example 361], the IC50 under setting [1] came out at 0.32 µM.

As to `CCc1cc2c(cc1Cl)C=Cc1cccnc1C2C1CCN(C(=O)Cc2ccncc2)CC1` (stereo not shown) [Example 362], the IC50 under setting [1] is 1.16 µM.

As for `O=C(c1c[nH]c2ccccc12)N1CCN(C2c3ccc(Cl)cc3CCc3cccnc32)CC1` (stereo not shown) [Example 368], where the note is “at 12 μM”, the FPT inhibition is on record as 14 @12 μM %.

Regarding `N#CCC(=O)N1CCC(=C2c3ccc(Cl)cc3CCc3cc(Br)cnc32)CC1` [Example 400-A], the IC50 under setting [1] was found to be 2.6 µM.

Consider `CCCCNc1c(Br)cnc2c1CCc1cc(Cl)ccc1C2=C1CCN(C(=O)Cc2ccncc2)CC1` [Example 400-M], for which the IC50 under setting [2] worked out at 0.9 µM.

For `CC1(C2CCN(C(=O)Cc3cc[n+]([O-])cc3)CC2)c2ccc(Cl)cc2CCc2cccnc21` (stereo not shown) [Example 401-A], the IC50 under setting [1] turned out to be 1.7 µM.

For `CC(=O)Nc1cnc2c(c1)CCc1cc(Cl)ccc1C2=C1CCN(C(=O)Cc2ccncc2)CC1` [Example 403], under setting [1], the IC50 was 1000 µM.

As to `CS(=O)(=O)Nc1cnc2c(c1)CCc1cc(Cl)ccc1C2=C1CCN(C(=O)Cc2ccncc2)CC1` [Example 404], the IC50 under setting [1] came out at 4.6 µM.

Regarding `N#Cc1cnc2c(c1)CCc1cc(Cl)ccc1C2=C1CCN(C(=O)Cc2ccncc2)CC1` [Example 406], the IC50 under setting [2] was found to be 1.4 µM.

As to `CC1(C2CCN(C(=O)Cc3ccc[n+]([O-])c3)CC2)c2ccc(Cl)cc2CCc2cc(Br)cnc21` (stereo not shown) [Example 410-C], under setting [1], the IC50 was 0.052 µM.

`CC1(C2=CCN(C(=O)Cc3ccncc3)CC2)c2ccc(Cl)cc2CCc2cccnc21` (stereo not shown) [Example 410-F]: the IC50 under setting [1] worked out at 2.2 µM.

`CN1CCN(CC(=O)N2CCC(=C3c4ccc(Cl)cc4CCc4cccnc43)CC2)CC1` [Example 410-H]: the IC50 under setting [1] came out at 7 µM.

`CN1CCN(CC(=O)N2CCC(=C3c4ccc(Cl)cc4CCc4cc(Br)cnc43)CC2)CC1` [Example 410-J]: the IC50 under setting [1] turned out to be 1.9 µM.

With `O=C(Cc1ccncc1)N1CCC(C2c3ccc(Cl)cc3C([N+](=O)[O-])=Cc3cccnc32)CC1` (stereo not shown) [Example 410-L], under setting [1], the IC50 stood at 2.9 µM.

With `CN1CCC(CC(=O)N2CCC(=C3c4ccc(Cl)cc4CCc4c3n(C)cc(Br)c4=O)CC2)CC1` [Example 410-M], the IC50 under setting [1] is around 12 µM.

Regarding `O=C(Cc1ccnc(-n2ccnc2)c1)N1CCC(=C2c3ccc(Cl)cc3CCc3cc(Br)cnc32)CC1` [Example 410-T], under setting [1], the IC50 was 1.8 µM.

In the case of `CSc1cc(CC(=O)N2CCC(=C3c4ccc(Cl)cc4CCc4cc(Br)cnc43)CC2)ccn1` [Example 410-V], under setting [1], the IC50 worked out at 1.17 µM.

For the compound `CC1(C2CCN(C(=O)Cc3ccncc3)CC2)c2ccc(Cl)cc2CCc2cccnc21` (stereo not shown) [Example 410], the IC50 under setting [1] was 0.7 µM.

In the case of `O=C(Cc1ccncc1)N1CCC(=C2c3ccc(Cl)cc3CCc3ccc(O)nc32)CC1` [Example 411-C], under setting [2], the IC50 came out at 6 µM.

In the case of `O=C(Cc1ccnc(OCc2ccccc2)c1)N1CCC(=C2c3ccc(Cl)cc3CCc3cc(Br)cnc32)CC1` [Example 411-DD], the IC50 under setting [2] is 3.1 µM.

In the case of `O=C(Cc1cc[nH]c(=O)c1)N1CCC(=C2c3ccc(Cl)cc3CCc3cc(Br)cnc32)CC1` [Example 411-EE], where the note is “(3.3) μM”, the “FPT inhibition at the concentration in parentheses” value (“FPT inhibition at the concentration” for short) is recorded as 10 (3.3).

With `O=C(Cc1ccnc(N2CCCCC2)c1)N1CCC(=C2c3ccc(Cl)cc3CCc3cc(Br)cnc32)CC1` [Example 411-FF], under setting [2], the IC50 amounted to 1.8 µM.

As for `O=C(Cc1ccncc1)N1CCC(=C2c3cc([N+](=O)[O-])c(Cl)cc3CCc3cccnc32)CC1` [Example 411-F], under setting [2], the IC50 stood at 1.28 µM.

On to `O=C(Cc1ccncc1)N1CCC(=C2c3ccc(Cl)cc3CCc3cc(Cl)ccc32)CC1` [Example 411-L], for which, under setting [2], the IC50 stood at 0.82 µM.

Turning to `O=C(Cc1ccncc1)N1CCC(=C2c3ccc(Cl)cc3CCc3cc(F)cnc32)CC1` [Example 411-M], the IC50 under setting [2] was 0.65 µM.

As to `O=C(Cc1cc[n+]([O-])cc1)N1CCC(=C2c3ccc(Cl)cc3CCc3cc(F)cnc32)CC1` [Example 411-N], the “FPT inhibition at the concentration” value ((1.3) μM) is 44(1.3). Also, the IC50 under setting [2] is around 2 µM.

With `CC(C)(C(=O)N1CCC(=C2c3ccc(Cl)cc3CCc3cc(F)cnc32)CC1)c1cc[n+]([O-])cc1` [Example 411-O], where the note is “(4) μM”, the “FPT inhibition at the concentration” value is listed as 39 (4). Also, the IC50 under setting [2] is around 5 µM.

With `O=C(Cc1ccc[n+]([O-])c1)N1CCC(=C2c3ccc(Cl)cc3CCc3cc(F)cnc32)CC1` [Example 411-Q], the “FPT inhibition at the concentration” value ((4.3) μM) is reported as 33 (4.3). Further, the IC50 under setting [2] is around 10 µM.

In the case of `CN1CCC(CC(=O)N2CCC(=C3c4ccc(Cl)cc4CCc4cc(F)cnc43)CC2)CC1` [Example 411-R], under “(1.3) μM”, the “FPT inhibition at the concentration” value is recorded as 29 (1.30). For the same compound, the IC50 under setting [2] is around 4 µM.

Turning to `CN1CCCC(CC(=O)N2CCC(=C3c4ccc(Cl)cc4CCc4cc(F)cnc43)CC2)C1` (stereo not shown) [Example 411-S], the IC50 under setting [2] was determined as 2.1 µM.

As for `O=C(Cc1cccnc1)N1CCC(=C2c3ccc(Cl)cc3CCc3cc(Cl)cnc32)CC1` [Example 411-T], the IC50 under setting [2] came to 0.58 µM.

In the case of `O=C(Cc1ccc[n+]([O-])c1)N1CCC(=C2c3ccc(Cl)cc3CCc3cc(Cl)cnc32)CC1` [Example 411-U], the IC50 under setting [2] is 1.12 µM.

As to `CN1CCCC(CC(=O)N2CCC(=C3c4ccc(Cl)cc4CCc4cc(Cl)cnc43)CC2)C1` (stereo not shown) [Example 411-V], the 50% inhibitory concentration (IC50) under setting [2] was 0.27 µM.

With `CN1CCC(CC(=O)N2CCC(=C3c4ccc(Cl)cc4CCc4cc(Cl)cnc43)CC2)CC1` [Example 411-X], the IC50 under setting [2] came out at 0.45 µM.

Turning to `O=C(Cc1ccc[n+]([O-])c1)N1CCC(C2c3ccc(Cl)cc3CCc3cc(Br)cnc32)CC1` (stereo not shown) [Example 411-Z], under setting [2], the IC50 was 1.5 µM.

Consider `O=C(Cn1cncn1)N1CCC(=C2c3ccc(Cl)cc3CCc3cc(Br)cnc32)CC1` [Example 412], for which the IC50 under setting [1] was 0.52 µM.

`O=C(Nc1ccccc1)N1CCC(=C2c3ccc(Cl)cc3CCc3c(Cl)ccnc32)CC1` [Example 414-A]: under setting [2], the IC50 is 1.9 µM.

Turning to `O=C(Cc1cc[n+]([O-])cc1)N1CCC(=C2c3ccc(Cl)cc3C=Cc3cccnc32)CC1` [Example 417-A], under setting [2], the IC50 turned out to be 0.85 µM.

For `CC(=O)ON=C1Cc2cccnc2C(=C2CCN(C(=O)Cc3ccncc3)CC2)c2ccc(Cl)cc21` [Example 420], under setting [2], the IC50 worked out at 0.23 µM.

Consider `O=C(Nc1cc[n+]([O-])cc1)N1CCC(=C2c3ccc(Cl)cc3CCc3cc(Cl)ccc32)CC1` [Example 422-A], for which, under “(1.2) μM”, the “FPT inhibition at the concentration” value is on record as 22 (1.2). Under setting [2], the IC50 is above 1.2 µM.

On to `O=C(Cc1cc[n+]([O-])cc1)N1CCC(=C2c3ccc(Cl)cc3CCc3cc(Cl)ccc32)CC1` [Example 422], for which the IC50 under setting [2] stood at 0.6 µM.

For the compound `CCN(CC)c1cnc2c(c1)CCc1cc(Cl)ccc1C2=C1CCN(C(=O)Cc2ccncc2)CC1` [Example 424-A], the IC50 under setting [1] is listed as 1000 µM. In addition, the “FPT IC50 (μM) column, second line printed as 'x (y)'” value (Table 22, no key shown, presumably % inhibition (concentration in μM)) is recorded as 22 (4).

`CCNc1cnc2c(c1)CCc1cc(Cl)ccc1C2=C1CCN(C(=O)Cc2ccncc2)CC1` [Example 424]: under setting [1], the IC50 amounted to 1.3 µM.

`CC(C)(C(=O)N1CCN(C2c3ccc(Cl)cc3CCc3cccnc32)CC1)c1cc[n+]([O-])cc1` (stereo not shown) [Example 425-A]: under setting [2], the IC50 came to 2.2 µM.

As to `CC(C)(C(=O)N1CCN(C2c3ccc(Cl)cc3CCc3cccnc32)CC1)c1ccc[n+]([O-])c1` (stereo not shown) [Example 425-C], under setting [2], the IC50 was 1.26 µM.

As to `O=C(Cc1ccc[n+]([O-])c1)N1CCN([C@@H]2c3ccc(Cl)cc3CCc3cccnc32)CC1` [Example 425-F], the IC50 (FPT IC50, enzyme inhibition) stood at 7 µM.

Broadly, the IC50 is the concentration that inhibits the measured activity by half.
